Where no end group is shown, it is not given here. The star is where a group is joined. Pam3Cys = N-terminal lipid (lipidation), CCCCCCCCCCCCCCCC(=O)N[C@@H](CSCC(COC(=O)CCCCCCCCCCCCCCC)OC(=O)CCCCCCCCCCCCCCC)C(=O)*

Assay [1] relates to human microglial cell line CHME. In words: Phagocytosis of beta-amyloid 1-42 peptide by CHME cells. It counts as cell-based. Conditions: Pam3Cys lip peptide 5 ug per ml, FIG. 18. Here is the method: Phagocytosis of beta-amyloid 1-42 peptide by the human microglial cell line CHME was observed after the addition of TLR2 agonist containing adjuvants Protollin and Pam3CysLip peptide. […] The synthetic peptide sequence of the Pam3Cys Lip peptide is described herein: Pam3Cys-SQ EPAAPAAEAT PAAEAP. Protollin was used at concentration 1 ug per ml based on the LPS content from Shigella flexneri. Pam3Cys lip peptide was used at concentration of 5 ug per ml of the pure tri-palmitoylated peptide.
Additionally, cells were imaged using 42 HiLyte 488 Fluo (Anaspec, Inc.) at 2 ug per ml in DMEM complete media (Invitrogen). Lysotracker red staining was performed and slides were mounted and co-stained with DAPI to show the nucleus (blue). […] Lysotracker red reagent was purchased from Invitrogen and used as manufacturer recommendations.

Assay [2] has as its system Lineage-CD11b+ monocytes. In words: Monocyte analysis and counting after adjuvant injection in mice. It counts as in vivo, C57BL/6 mice. The protocol:
(§1) 24-Hours after injection of the TLR adjuvants, peripheral blood was drawn from C57BL/6 mice via cardiac puncture with lithium-heparin as anticoagulant. Red blood cell lysis was performed twice on pooled blood with Ammonium Chloride-based Buffer (Sigma, Steinheim, Germany) and cells were counted with the EasyCount™ System (Immunicon). […] Cells were finally washed three times and fixed for 15 min. with a 2% paraformaldehyde solution in PBS. Fluorescence minus one (FMO) controls were always included in the assays for fluorescent compensation setting. Samples were acquired on a flow cytometer (BD FACSCanto II) and data analyzed with the FACSDiva software (BD Biosciences). Monocytes were identified by their Side/Forward scatter properties and gated as CD3-/CD45R/B220-/Ly-6G-/NK1.1-(Lineage-)/CD11b+ cells. CD11b+ monocyte frequency was reported as a percentage of the total cells excluding debris.
as §1, with “24 hours” for “24-Hours”, “each immunomodulator,” for “the TLR adjuvants,”, “min” for “min.”, “monocytes” for “monocyte”

In assay [3] the test system is Aβ42. The assay can be described thus: Aβ42 specific immunogenicity in the amyloid deposition mouse model. It counts as in vivo, TASTPM mice. As to conditions: 12 injections of 10 ug, intramuscular route; FIG. 29. Here is the method:
Whole blood is collected from mice and centrifuged on a vacutainer blood collection tube containing gel for serum separation. Serum samples are stored at −80° C. Streptavidin-coated plates (Greiner Bio-One, Germany) are first coated with beta-amyloid (1-42)-Lys(Biotin)-NH2 peptide (Anaspec, Inc.) at 0.5 μg/mL, using 50 mM sodium carbonate buffer, overnight at 4° C. Plates are then washed using a 4 times using PBS/0.05% Tween 20. Super Block (ScyTek laboratories) is added to the plates and incubated at 37° C. for at least one hour. Serum samples and standard (anti Aβ42 antibody (6E10 antibody, Covance, Inc.) are serially diluted in the plates and incubated at 37° C. for 2 hours. After a wash step, diluted peroxidase AffiniPure goat anti-mouse IgG, Fcγ fragment specific (Jackson ImmunoResearch Laboratories Inc.) is added for 1 hour at 37° C. A last wash is performed before adding TMB substrate reagent (BD OptEIA™, BD Biosciences) for 30 min at RT. Immediately, plates are stopped using 2N sulfuric acid, and then read at 450 nm using SpectraMax microplate reader (Molecular Devices, Inc.).

Assay [4] concerns TASTPM mice. The assay can be described thus: T-water maze test in TASTPM. The assay is classed as in vivo. As to conditions: 12 weekly i.m. injections; FIG. 30. Here is the method:
To determine whether a TLR2 agonist will improve the cognitive impairment in TASTPM mice, the Pam3CysLip adjuvant fused to the Aβ1-6 peptide was injected 12 times at weekly basis using the intramuscular route and the memory was assessed using the T-water maze test. […] TASTPM mice have received one a week for a period of 12 weeks the following treatment: PBS or mice have received once a week for a period of 12 weeks the following treatment: PBS or of Pam3CysLip Aβ1-6 peptide.

Assay [5] concerns APPSwe/PS1 mice. In words: T-water maze. The assay is classed as in vivo. Conditions: Example 21: twelve weekly injections; CRX527, CRX601 20 μg i.p., 3D MPL 50 μg i.p., AS01B 1/10th human dose i.m.; FIG. 24. Here is the method:
Five groups of APPSwe/PS1 mice received one a week for a period of 12 weeks the following treatment: • Gr1: APPSwe/PS1+NaCl 0.9% n(=20), i.p. injections • Gr4: APPSwe/PS1+CRX527 (20 μg/mouse, 130 μl, n=10), i.p. injections • Gr5: […] (50 μg/mouse, 130 μl, n=10), i.p. injections • Gr8 APPSwe/PS1+AS15 ( 1/10th of human dose, 50 μl, n=10), i.m. injections • Gr9: APPSwe/PS1+AS01B ( 1/10th of human dose, 50 μl, n=10), i.m. injections
Mice were tested during the “light on” phase of the day. Behavioral experimenter was blinded to the genetic and treatment status of animals. To assess hippocampal-dependent spatial learning and memory, mice were trained in the T-water maze task. In this paradigm, we evaluate the mouse's ability to remember the spatial location of submerged platform. The T-maze apparatus (length of stem, 64 cm; length of arms, 30 cm; width, 12 cm; height of walls, 16 cm) was made of clear fiberglass and filled with water (23±1° C.) at a height of 12 cm. A platform (11×11 cm) was placed at the end of the target arm and was submerged 1 cm below the surface. The acquisition phase allows to evaluate animals for left-right spatial learning. During the first two trials, platforms were placed on each arms of the maze to test the spontaneous turning preference of the mouse. After these two trials, the least chosen arm was reinforced by the escape platform. The mice were placed in the stem of the T-maze and choose to swim either left or right until they found the submerged platform and escape to it, to a maximum of 60 s. After reaching the platform, the mice remained on it for 20 s and then were immediately placed back in the maze. […] Repeated trials were presented on the same day up to a maximum of 48 trials. A rest period of at least 10-15 min intervened between each block of 10 trials. A mouse was considered to have learned the task when it made no errors in a block of five consecutive trials. […] The number of trials to reach the criterion (five of five correct choices made on consecutive trials) was measured as well as the latency to find the escape platform.

In assay [6] the test system is BV2 microglia cells. In words: In vitro phagocytosis of Aβ1-42 in BV2 cells, Western blot. As to conditions: 5 μg/mL cytochalasin D; FIG. 16. The assay is classed as cell-based, mouse. The protocol:
For total Aβ detection, 10-30 μg of cell extracts were separated on a precast 10-20% SDS polyacrylamide Tris-Tricine gel (Bio-Rad, Canada). Separated proteins were then transferred onto polyvinylidene fluoride (PVDF) membranes (PerkinElmer, Canada). Membrane were incubated in DPBS (Gibco, USA) at 90° C. for 10 min. Membrane were then incubated for 1 hour in blocking solution, which consist in TBS-T (50 mM Tris-HCl pH 8,0; 150 mM NaCl; 0.05% Tween 20) supplemented with 1% BSA (Sigma, Canada) and 5% non-fat dry milk, and probed for 16 hours at 4° C. with a mouse anti-amyloid beta protein monoclonal antibody clone 6E10 (Covance, USA) diluted to 1:1000 in TBS-T supplemented with 5% BSA and 0.02% sodium azide. Membranes were washed once for 15 min and three times for 5 min in TBS-T at room temperature. […] Films were digitalized using a HP Scanjet 4370 (HP) and signal intensity was measured using ImageJ (version 1.44p, NIH).
Aβ specific antibodies stimulate the uptake of soluble Aβ1-42 toxic peptides in an actin polymerization-dependent mechanism. […] Cells were incubated for the indicated period of time, resuspended by trypsinization, collected, solubilised in lysis buffer and further analyzed by immunoblotting. […]
In general terms: Immunoblotting shows a protein as a band on a membrane.

Assay [7] concerns PDAPP mice. As to conditions: immunization of young PDAPP mice; cited from earlier work.

As to “Pam3Cys-SQ EPAAPAAEAT PAAEAP (Pam3Cys-SQEPAAPAAEATPAAEAP) [Pam3CysLip peptide, TLR2 agonist, tri-palmitoylated peptide from Neisseria meningitidis strain 8047]”, the phagocytosis in assay [1] (pre-incubation 18 hrs) is 86 % of cells. Also, in assay [1] (Protollin 1 ug per ml (LPS content), 18 hrs, vs PBS), the “phagocytosis of Aβ1-42 by CHME” value is listed as “higher amyloid phagocytic activity”.

For the molecule QS21 [reference compound], the “activated Ly6C+ monocytes” value in assay [2] (single i.m. injection, 24 hrs, FIG. 19B) was found to be 75%. Moreover, in assay [2] (single i.m. injection, after 24 hrs, QS21 5 μg, FIG. 19A), the “number of monocytes, % of total peripheral white blood cells” value came out at 9.1%.

On to “Pam3Cys-SQ EPAAPAAEAT PAAEAPDAEFRH (Pam3Cys-SQEPAAPAAEATPAAEAPDAEFRH) [Pam3CysLip Aβ1-6 peptide]”, for which, in assay [3], the “anti Aβ42 specific immunogenicity” value is “High and specific anti Aβ42 specific immunogenicity”. For the same molecule, in assay [4], the “right-left discrimination tests (T-water maze) vs PBS injected group” value is on record as “trend of improvement”.

In the case of `CCCCCCCCCCC[C@H](CC(=O)N[C@H]1[C@H](OC[C@H](NC(=O)C[C@@H](CCCCCCCCCCC)OC(=O)CCCCCCCCC)C(=O)O)O[C@H](CO)[C@@H](OP(=O)(O)O)[C@@H]1OC(=O)C[C@@H](CCCCCCCCCCC)OC(=O)CCCCCCCCC)OC(=O)CCCCCCCCC` [CRX527], the “behaviour as assessed by T water maze testing” value in assay [5] is “significant improvements in behaviour”. Further, the “circulating monocytes numbers following injection” value in assay [2] (i.m. or i.p. routes, doses of b403, FIG. 9) is “Upregulation of circulating monocytes numbers”.

Take `C=C1[C@@H](C)[C@H]2[C@H](Cc3ccccc3)NC(=O)[C@]23[C@H](OC(C)=O)/C=C/[C@@](C)(O)C(=O)[C@@H](C)C/C=C/[C@H]3[C@@H]1O` [cytochalasin D]: the “effect on 2E7-increased cellular uptake of Aβ1-42” value in assay [6] is listed as “inhibited”.

For “synthetic human Aβ1-42: synthetic human Aβ1-42 used to immunize PDAPP mice”, the AD-like neuropathologies entry in assay [7] was “reduce the extent and progression”.

Source of the values: patent US20120328605A1, “COMPOSITIONS AND USES” (priority 2010, published 2012).
